Numbering of substitutions follows the chain as printed.

We go through 1 molecule from publication PMC8881610 (Nature Communications, 2022).

The test system of experiment [1] is GCGR. As to the kind of experiment: cAMP accumulation assay, GCGR WT, mutant or modified constructs. The format is cell-based, human. The settings on record: GCGR triple mutant (Q142A + D195A + R199A) vs WT. On the procedure: Human embryonic kidney 293 cells containing SV40 large T-antigen (HEK293T) were cultured in DMEM (Gibco) supplemented with 10% (v/v) fetal bovine serum (FBS, Gibco), 1 mM sodium pyruvate (Gibco) and 100 units/mL penicillin and 100 μg/mL streptomycin at 37 °C in 5% CO2. Chinese hamster ovary (CHO-K1) cells were cultured in F-12 (Gibco) containing 10% FBS, 100 units/mL penicillin and 100 μg/mL streptomycin at 37 °C in 5% CO2. For cAMP and receptor expression assays, HEK293T cells were seeded into 6-well cell culture plates at a density of 7 × 10^5 cells per well. After overnight incubation, cells were transfected with GIPR, GLP-1R or GCGR construct using Lipofectamine 2000 or Lipofectamine 3000 transfection reagent (Invitrogen). For whole-cell binding assay, CHO-K1 cells were seeded into 96-well fibronectin-treated cell culture plates at a density of 3 × 10^4 cells per well. After overnight incubation, cells were transfected with GIPR, GLP-1R or GCGR construct using Lipofectamine 2000 transfection reagent (Invitrogen). Following 24 h culturing, the transfected cells were ready for use. […]
For GIPR, GLP-1R and GCGR, multi-targeting agonist stimulated cAMP accumulation was measured by a LANCE Ultra cAMP kit (PerkinElmer). […] Plates were incubated at RT for 1 h and the fluorescence intensity measured at 620 nm and […] by an EnVision multilabel plate reader (PerkinElmer).
In general terms: cAMP levels reflect the balance of adenylyl cyclase and phosphodiesterase activity.

Experiment [2] deals with T1, GIPR (Homo sapiens, UniProt P48546, D191A/Q138A/R196A).
T1 sequence (P48546 22-466 Q138A/D191A/R196A): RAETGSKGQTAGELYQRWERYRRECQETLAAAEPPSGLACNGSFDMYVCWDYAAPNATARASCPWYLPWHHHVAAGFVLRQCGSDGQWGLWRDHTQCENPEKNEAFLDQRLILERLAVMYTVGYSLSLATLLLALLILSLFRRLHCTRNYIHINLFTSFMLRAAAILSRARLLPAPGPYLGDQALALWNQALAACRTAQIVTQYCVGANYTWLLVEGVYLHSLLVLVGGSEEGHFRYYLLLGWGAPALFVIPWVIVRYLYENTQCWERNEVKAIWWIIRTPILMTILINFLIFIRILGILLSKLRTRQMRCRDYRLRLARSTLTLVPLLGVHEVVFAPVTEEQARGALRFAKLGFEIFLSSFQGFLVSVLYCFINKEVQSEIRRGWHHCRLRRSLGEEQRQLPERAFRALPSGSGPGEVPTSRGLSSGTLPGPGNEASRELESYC
As to the kind of experiment: cAMP accumulation assay (LANCE Ultra cAMP kit), GIPR WT, mutant or modified constructs. The experiment is classed as cell-based. Further details: acylated tirzepatide to the full-length or modified; Flag; expressed in transfected cells; host or cells: HEK293T. As to conditions: GIPR Q138A/D191A/R196A, HEK293T. An outline of the steps:
(§1)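 HEK293T cells transiently transfected with human GIPR WT or mutant constructs (pcDNA3.1), used after 24 h. The cells were stimulated with peptide agonists for 40 min at RT in HBSS with 5 mM HEPES, 0.1% BSA or casein, and 0.5 mM IBMX. cAMP was read by LANCE Ultra TR-FRET (Eu-cAMP tracer/ULight anti-cAMP, 1 h RT, 620/650 nm).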

The target of experiment [3] is T2, GIPR (Homo sapiens, UniProt P48546, R192A).
T2 sequence (P48546 22-466 R192A): T1 sequence (P48546 22-466 Q138A/D191A/R196A) with A117Q, A170D, R171A, A175R
The experiment is described as above. The format is cell-based. Set-up: acylated tirzepatide to the full-length or modified; Flag; expressed in transfected cells; host or cells: HEK293T. As to conditions: GIPR R192A, HEK293T. Summed up:
as §1

[4] abbreviates: read-out: cAMP pEC50 (converted).

Turning to `CCCCCCCCCCCCCCCC(=O)N[C@@H](CCC(=O)NCCCC[C@H](NC(=O)[C@H](CC(=O)O)NC(=O)[C@H](CO)NC(=O)[C@@H](NC(=O)[C@H](Cc1ccccc1)NC(=O)[C@@H](NC(=O)CNC(=O)[C@H](CCC(N)=O)NC(=O)C(C)(C)NC(=O)[C@@H](N)Cc1c[nH]cn1)[C@@H](C)O)[C@@H](C)O)C(=O)N[C@@H](CO)C(=O)N[C@@H](CCCCN)C(=O)N[C@@H](Cc1ccc(O)cc1)C(=O)N[C@@H](CC(C)C)C(=O)N[C@@H](CC(=O)O)C(=O)N[C@@H](CCC(=O)O)C(=O)N[C@@H](CCCNC(=N)N)C(=O)N[C@@H](C)C(=O)N[C@@H](C)C(=O)N[C@@H](CCC(N)=O)C(=O)N[C@@H](CC(=O)O)C(=O)N[C@@H](Cc1ccccc1)C(=O)N[C@H](C(=O)N[C@@H](CCC(N)=O)C(=O)N[C@@H](Cc1c[nH]c2ccccc12)C(=O)N[C@@H](CC(C)C)C(=O)N[C@@H](CC(C)C)C(=O)N[C@@H](CC(=O)O)C(=O)NCC(=O)NCC(=O)N1CCC[C@H]1C(=O)N[C@@H](CO)C(=O)N[C@@H](CO)C(=O)NCC(=O)N[C@@H](C)C(=O)N1CCC[C@H]1C(=O)N1CCC[C@H]1C(=O)N1CCC[C@H]1C(=O)N[C@@H](CO)C(N)=O)C(C)C)C(=O)O` [Peptide 20], the “reduction of potency (cAMP) by receptor mutation” value in experiment [1] came out at 93 fold. Further, the values for the EC50 in experiment [2] (setting [4]) and in experiment [3] (setting [4]) were 30.2 nM and 0.0302 nM, respectively. For the same molecule, the results for the Emax in experiment [2] (HEK-293T) and in experiment [3] (HEK-293T) were 56.3 ± 12.2% and 101 ± 1.91%, respectively.
